Values of other authors as cited in US10632043B2, “Premix formulation for parenteral use and packaging thereof” (Aurobindo Pharma Ltd, priority 2015, dated 2020).
Where two headings read alike, the source gives them in different places.

Conditions: for time stable: diluted to 4 mg/mL in 0.9% sodium chloride injection, polypropylene (PP) syringes

loss of drug potency (PP syringe, over 48 hours): about 5% | time stable (5° C.): 14 days | time stable (20-25° C.): 2 days | loss of drug concentration (syringes at room temperature, over 48 hours): < 10% | loss of drug concentration (syringes, refrigerated, over 14 days): < 5%
SMILES: Cc1cccc([C@H](C)c2cnc[nH]2)c1C [dexmedetomidine]
